According to PubChem BioAssay (NCI):
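Cultured in 96-well plates, cells were exposed to test compound for 48 hours across five concentrations. TGI denotes the concentration required for complete inhibition of growth.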

Experiments:
Assay in all cases: NCI tumour cell line growth inhibition, 48 h
786-0 renal = tested on: 786-0 renal
A549 NSCLC = tested on: A549 NSCLC
ACHN renal = tested on: ACHN renal
BT-549 breast = tested on: BT-549 breast
CAKI-1 renal = tested on: CAKI-1 renal
CCRF-CEM leukemia = tested on: CCRF-CEM leukemia
COLO 205 colon = tested on: COLO 205 colon
DU-145 prostate = tested on: DU-145 prostate
EKVX NSCLC = tested on: EKVX NSCLC
HCT-116 colon = tested on: HCT-116 colon
HCT-15 colon = tested on: HCT-15 colon
HL-60(TB) leukemia = tested on: HL-60(TB) leukemia
HOP-62 NSCLC = tested on: HOP-62 NSCLC
HOP-92 NSCLC = tested on: HOP-92 NSCLC
HS 578T breast = tested on: HS 578T breast
HT29 colon = tested on: HT29 colon
IGROV1 ovarian = tested on: IGROV1 ovarian
K-562 leukemia = tested on: K-562 leukemia
LOX IMVI melanoma = tested on: LOX IMVI melanoma
M14 melanoma = tested on: M14 melanoma
MALME-3M melanoma = tested on: MALME-3M melanoma
MCF7 breast = tested on: MCF7 breast
MDA-MB-231 breast = tested on: MDA-MB-231 breast
MDA-MB-435 = tested on: MDA-MB-435
MDA-N = tested on: MDA-N
MOLT-4 leukemia = tested on: MOLT-4 leukemia
NCI-H226 lung = tested on: NCI-H226 lung
NCI-H23 lung = tested on: NCI-H23 lung
NCI-H522 lung = tested on: NCI-H522 lung
NCI/ADR-RES ovarian = tested on: NCI/ADR-RES ovarian
OVCAR-3 ovarian = tested on: OVCAR-3 ovarian
OVCAR-4 ovarian = tested on: OVCAR-4 ovarian
OVCAR-5 ovarian = tested on: OVCAR-5 ovarian
OVCAR-8 ovarian = tested on: OVCAR-8 ovarian
PC-3 prostate = tested on: PC-3 prostate
RPMI-8226 leukemia = tested on: RPMI-8226 leukemia
RXF 393 renal = tested on: RXF 393 renal
SF-268 CNS = tested on: SF-268 CNS
SF-295 CNS = tested on: SF-295 CNS
SK-MEL-2 melanoma = tested on: SK-MEL-2 melanoma
SK-MEL-28 melanoma = tested on: SK-MEL-28 melanoma
SK-MEL-5 melanoma = tested on: SK-MEL-5 melanoma
SK-OV-3 ovarian = tested on: SK-OV-3 ovarian
SNB-19 CNS = tested on: SNB-19 CNS
SNB-75 CNS = tested on: SNB-75 CNS
SR leukemia = tested on: SR leukemia
T-47D breast = tested on: T-47D breast
TK-10 renal = tested on: TK-10 renal
U251 CNS = tested on: U251 CNS
UACC-257 melanoma = tested on: UACC-257 melanoma
UACC-62 melanoma = tested on: UACC-62 melanoma
UO-31 renal = tested on: UO-31 renal
A498 renal = tested on: A498 renal
HCC-2998 colon = tested on: HCC-2998 colon
KM12 colon = tested on: KM12 colon
NCI-H460 lung = tested on: NCI-H460 lung
SF-539 CNS = tested on: SF-539 CNS
SN12C renal = tested on: SN12C renal
SW-620 colon = tested on: SW-620 colon

SMILES: CC(=Nc1c2ccccc2nc2ccccc12)N(C)C
- TGI (786-0 renal): > 100 µM
- TGI (A549 NSCLC): > 100 µM
- TGI (ACHN renal): 76.4 µM
- TGI (BT-549 breast): 90.7 µM
- TGI (CAKI-1 renal): > 100 µM
- TGI (CCRF-CEM leukemia): > 100 µM
- TGI (COLO 205 colon): 25.2 µM
- TGI (DU-145 prostate): > 100 µM
- TGI (EKVX NSCLC): > 100 µM
- TGI (HCT-116 colon): 27.6 µM
- TGI (HCT-15 colon): > 100 µM
- TGI (HL-60(TB) leukemia): 24 µM
- TGI (HOP-62 NSCLC): 66.2 µM
- TGI (HOP-92 NSCLC): 37.2 µM
- TGI (HS 578T breast): 69.8 µM
- TGI (HT29 colon): 27.4 µM
- TGI (IGROV1 ovarian): > 100 µM
- TGI (K-562 leukemia): 25.4 µM
- TGI (LOX IMVI melanoma): 26.7 µM
- TGI (M14 melanoma): 25.4 µM
- TGI (MALME-3M melanoma): > 100 µM
- TGI (MCF7 breast): 78.8 µM
- TGI (MDA-MB-231 breast): 30.4 µM
- TGI (MDA-MB-435): > 100 µM
- TGI (MDA-N): 90.3 µM
- TGI (MOLT-4 leukemia): 44.8 µM
- TGI (NCI-H226 lung): 45.7 µM
- TGI (NCI-H23 lung): 41.1 µM
- TGI (NCI-H522 lung): 25.5 µM
- TGI (NCI/ADR-RES ovarian): 54.8 µM
- TGI (OVCAR-3 ovarian): 46.5 µM
- TGI (OVCAR-4 ovarian): 90.8 µM
- TGI (OVCAR-5 ovarian): > 100 µM
- TGI (OVCAR-8 ovarian): 52.4 µM
- TGI (PC-3 prostate): 46.8 µM
- TGI (RPMI-8226 leukemia): 38.2 µM
- TGI (RXF 393 renal): 78.1 µM
- TGI (SF-268 CNS): > 100 µM
- TGI (SF-295 CNS): > 100 µM
- TGI (SK-MEL-2 melanoma): 46 µM
- TGI (SK-MEL-28 melanoma): 61.5 µM
- TGI (SK-MEL-5 melanoma): 27.8 µM
- TGI (SK-OV-3 ovarian): > 100 µM
- TGI (SNB-19 CNS): > 100 µM
- TGI (SNB-75 CNS): 71 µM
- TGI (SR leukemia): 23.3 µM
- TGI (T-47D breast): 54.5 µM
- TGI (TK-10 renal): > 100 µM
- TGI (U251 CNS): 72 µM
- TGI (UACC-257 melanoma): 43.5 µM
- TGI (UACC-62 melanoma): 32.9 µM
- TGI (UO-31 renal): 54.6 µM

SMILES: O=C(CN1CCCCC1)c1ccc2c(c1)Sc1ccccc1O2
- TGI (786-0 renal): 33.2 µM
- TGI (A498 renal): 39.3 µM
- TGI (A549 NSCLC): 29.1 µM
- TGI (ACHN renal): 27.7 µM
- TGI (CAKI-1 renal): 37.2 µM
- TGI (CCRF-CEM leukemia): 34.4 µM
- TGI (COLO 205 colon): 61.1 µM
- TGI (DU-145 prostate): 49.3 µM
- TGI (EKVX NSCLC): 36.1 µM
- TGI (HCC-2998 colon): 37 µM
- TGI (HCT-116 colon): 35 µM
- TGI (HCT-15 colon): 24.6 µM
- TGI (HL-60(TB) leukemia): 58.1 µM
- TGI (HOP-62 NSCLC): 32.5 µM
- TGI (HOP-92 NSCLC): 28 µM
- TGI (HS 578T breast): 21.6 µM
- TGI (HT29 colon): 23.7 µM
- TGI (IGROV1 ovarian): 23.5 µM
- TGI (K-562 leukemia): > 100 µM
- TGI (KM12 colon): 30.1 µM
- TGI (LOX IMVI melanoma): 40.3 µM
- TGI (M14 melanoma): 28.5 µM
- TGI (MALME-3M melanoma): 33.4 µM
- TGI (MCF7 breast): 30.9 µM
- TGI (MDA-MB-231 breast): 37.2 µM
- TGI (MDA-MB-435): 33.9 µM
- TGI (MDA-N): 34.5 µM
- TGI (MOLT-4 leukemia): > 100 µM
- TGI (NCI-H226 lung): 29 µM
- TGI (NCI-H23 lung): 27.9 µM
- TGI (NCI-H460 lung): 29.5 µM
- TGI (NCI/ADR-RES ovarian): 35 µM
- TGI (OVCAR-3 ovarian): 29.6 µM
- TGI (OVCAR-4 ovarian): 27.5 µM
- TGI (OVCAR-5 ovarian): 30 µM
- TGI (OVCAR-8 ovarian): 33.2 µM
- TGI (PC-3 prostate): 24.4 µM
- TGI (RPMI-8226 leukemia): > 100 µM
- TGI (RXF 393 renal): 21 µM
- TGI (SF-268 CNS): 33.9 µM
- TGI (SF-295 CNS): 30.9 µM
- TGI (SF-539 CNS): 30.6 µM
- TGI (SK-MEL-2 melanoma): 32.8 µM
- TGI (SK-MEL-28 melanoma): 37.8 µM
- TGI (SK-OV-3 ovarian): 29.6 µM
- TGI (SN12C renal): 42.7 µM
- TGI (SNB-19 CNS): 28.9 µM
- TGI (SNB-75 CNS): 24.2 µM
- TGI (SR leukemia): 75.1 µM
- TGI (SW-620 colon): 39.1 µM
- TGI (T-47D breast): 47.9 µM
- TGI (TK-10 renal): 44.6 µM
- TGI (U251 CNS): 39.6 µM
- TGI (UACC-257 melanoma): 39.6 µM
- TGI (UACC-62 melanoma): 25.7 µM
- TGI (UO-31 renal): 22.9 µM
